Measured values reported in article PMC9267955, “Antidiabetic, Antiglycation, and Antioxidant Activities of Ethanolic Seed Extract of Passiflora edulis and Piceatannol In Vitro” (Molecules, 2022).

Columns and labels:
[1] = biological target: T1, DPP-4 human recombinant enzyme (Homo sapiens, UniProt P27487); assay: DPP-4 inhibition assay; assay type: biochemical; settings: mean ± SD, triplicates
T1 construct: purchased Sigma-Aldrich (Oakville, ON, Canada)
Procedure: The DPP-4 inhibition assay was performed according to an established method. […] The reaction mixture was incubated for 30 min in the dark at 37 °C. Then, the fluorescent product was recorded at excitation/emission wavelengths of 350/450 nm using the microplate reader (Infinite® 200 PRO, TECAN, Männedorf, Switzerland). […] The percentage of the DPP-4 inhibition and IC50 was calculated as described in Section 3.3.1.

[2] = MGO capture using derivatization with OPD (HPLC); settings: PESE 2 mg/mL, PIC 2 mM, AMG 2 mM; MGO 2 mM; 37 °C, 1 h
Procedure: MGO scavenging was tested using a described procedure, with slight modifications. The quantification of MGO was based on derivatization with OPD, leading to the formation of the product 2-methylquinoxyline (2-MQ). MGO and OPD were dissolved in phosphate buffer (50 mM, pH 7.4) to a concentration of 2 mM and 4 mM, respectively. […] The reaction system was composed of 125 μL of the MGO solution, 125 μL of phosphate buffer (negative control), or PESE incubated at 37 °C for 1 h. After 250 μL of the OPD solution was added, the tubes were kept for 30 min for the derivatization reaction between MGO and OPD to complete. Then, the chromatographic analysis was performed. All solutions were previously filtered (microfilter pore diameter 0.45 μm). […] The linear gradient for elution was: starting at 5% of solvent B, 0–3 min, 5 to 50% B; 3–16 min, isocratic in 50% B; 16–17 min, 50–90% B; 17–19 min, isocratic in 90% B and 19–19.5 min, 90–5% B. The derivatization product, 2-methylquinoxyline (2-MQ), was detected at 315 nm, with a retention time of 10 min. The percentage of trapping efficiency of MGO was calculated using the following equation: % trapping MGO = [100 − (peak area after adding sample/peak area without adding sample) × 100].

[3] = Superoxide anion radical scavenging activity
Procedure: The potential of the samples to scavenger superoxide anion radicals was determined, with minor modifications. […] Phosphate buffer (19 mM, pH 7.4) was used to dissolve NADH, NBT, and PMS. QCT was used as means of comparison. The experiment was conducted at 37 °C in a microplate reader (Infinite® 200 PRO, TECAN, Männedorf, Switzerland), and the absorbance was measured at 560 nm. The results were expressed as IC50 of extract solution in μg/mL.

AML-12 cells = assay: Intracellular ROS level (DCFH-DA) after NNKOAc; assay type: cell-based, mouse; settings: 50 µg/mL, 3 h pretreatment; NNKOAc 100 µM
Procedure: (§1) The generation of intracellular ROS in BEAS-2B, AML-12, and MCF-10A cells after treatments was measured as described previously. Briefly, DCFH-DA dye was readily taken up by cells and is subsequently hydrolyzed to DCFH, which can be oxidized to a measurable fluorescent product dichlorofluorescein (DCF). […] Cells with DMSO media (0.5%) served as the vehicle control. After treatments, DCFH-DA was added to the cell culture plates at a final concentration of 5 μM followed by 40 min incubation at dark. The fluorescence […] was then measured at an excitation and emission wavelength of 485 nm and 535 nm, using a microplate reader (Infinite® 200 PRO, TECAN, Männedorf, Switzerland).
(§2) BEAS-2B, MCF10-A, and AML-12, cells were purchased from the American Tissue Type Culture Collection (ATCC; CRL-9609, CRL-10317, and CRL-2254) and cultured with a specific medium. BEAS-2B cells were cultured with LHC-9 media at 37 °C in an incubator with 5% CO2. Culture flasks (polystyrene T75) were pre-coated with a mixture of 0.01 mg/mL fibronectin, 0.03 mg/mL bovine collagen type I, and 0.01 mg/mL bovine serum albumin were dissolved in LHC-9 medium overnight. […]

MCF-10A cells = assay: Intracellular ROS level (DCFH-DA) after NNKOAc; assay type: cell-based; settings: 50 µg/mL, 3 h pretreatment; NNKOAc 100 µM
Procedure: as §1, §2

BEAS-2B cells = assay: MTS cell viability assay; assay type: cell-based, human; settings: 100 µg/mL (409 µM); 24 h
Procedure: (§3) BEAS-2B, MCF10-A, and AML-12, cells were purchased from the American Tissue Type Culture Collection (ATCC; CRL-9609, CRL-10317, and CRL-2254) and cultured with a specific medium. BEAS-2B cells were cultured with LHC-9 media at 37 °C in an incubator with 5% CO2. […] Cells were grown to around 70% confluence on the culture flask, and passages (<10) were employed for all experimental conditions. MTS Cell Titer 96™ aqueous cell proliferation assay was used to determine cell viability. […] For that, 1 × 10^4 cells were plated on a 96-well plate with a growth medium of 100 μL/well. […] Fifteen microliters of MTS reagent (with PMS) was then added to each well and incubated for 3 h in the dark. Absorbance was recorded at 490 nm using a microplate reader (Infinite® 200 PRO, TECAN, Männedorf, Switzerland). For each experiment, cells with DMSO media served as control, and cells with only culture medium and MTS reagent served as the blank.

MTS cell viability assay = assay type: cell-based; settings: human, MCF-10A cells, up to 100 µg/mL
Procedure: as §3

diabetic mice = system: diabetic mice; design: method as in doi:10.32604/biocell.2020.08955; settings: cited from earlier work

T1 sequence (P27487 whole entry): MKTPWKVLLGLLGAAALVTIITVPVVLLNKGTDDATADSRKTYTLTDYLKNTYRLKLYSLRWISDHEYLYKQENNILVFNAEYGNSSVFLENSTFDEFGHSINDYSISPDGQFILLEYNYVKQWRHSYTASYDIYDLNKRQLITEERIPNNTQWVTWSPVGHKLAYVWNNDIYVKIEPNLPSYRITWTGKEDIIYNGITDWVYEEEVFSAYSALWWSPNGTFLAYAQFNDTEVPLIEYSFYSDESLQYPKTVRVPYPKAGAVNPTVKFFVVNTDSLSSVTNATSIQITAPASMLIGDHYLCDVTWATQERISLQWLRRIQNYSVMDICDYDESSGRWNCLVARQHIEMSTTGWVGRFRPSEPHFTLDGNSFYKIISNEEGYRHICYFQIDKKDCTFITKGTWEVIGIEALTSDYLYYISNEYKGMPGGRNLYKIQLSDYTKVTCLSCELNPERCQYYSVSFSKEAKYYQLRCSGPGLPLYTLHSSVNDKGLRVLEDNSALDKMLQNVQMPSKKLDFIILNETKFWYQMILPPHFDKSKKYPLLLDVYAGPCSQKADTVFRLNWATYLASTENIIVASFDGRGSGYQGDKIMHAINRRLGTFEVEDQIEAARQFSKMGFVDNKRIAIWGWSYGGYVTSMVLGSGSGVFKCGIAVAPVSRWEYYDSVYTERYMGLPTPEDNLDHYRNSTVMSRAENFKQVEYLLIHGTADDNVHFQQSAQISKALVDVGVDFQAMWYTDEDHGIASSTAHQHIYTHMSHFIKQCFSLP
Procedure for HOCl scavenging activity: Briefly, a freshly prepared HOCl solution, by adjusting the pH of a 1% solution of NaOCl to 6.2 with dropwise addition of diluted H2SO4, was diluted to 30 µM, using 100 mM phosphate buffer pH 7.4. […] QCT was used as means of comparison. Fluorescence assays were performed in a microplate reader (Infinite® 200 PRO, TECAN, Männedorf, Switzerland), at 37 °C, at wavelengths of 505 ± 10 nm and 530 ± 10 nm, for excitation and emission, respectively. The results were expressed as IC50 (μg/mL) of extract solution.

Oc1cc(O)cc(/C=C/c2ccc(O)c(O)c2)c1 [PIC, 3,3′,4′,5-trans-tetrahydroxystilbene]
IC50 [1]: 4.66 mM | MGO trapping [2]: 65.1% | HOCl IC50 (HOCl scavenging activity): 1.2 ± 0.5 µg/mL | O2•− IC50 [3]: 7.3 ± 0.02 µg/mL | IC50 ([3]; data in parenthesis are in μM, read-out: O2•− IC50 (in parenthesis) (converted)): 30.1 µM | Protection from oxidative stress (ROS) caused by the carcinogen, AML-12 (AML-12 cells): able to protect | Protection from oxidative stress (ROS) caused by the carcinogen, MCF-10A (MCF-10A cells): able to protect | Reduction of cell viability of BEAS-2B cells (BEAS-2B cells): approximately 50% | viability at 24 h (MTS cell viability assay): > 80% | Blood glucose, diabetic mice (diabetic mice): lowered the blood glucose | Glucose tolerance, diabetic mice (diabetic mice): improved glucose tolerance
